Read-outs that look alike come from different tables or passages of the source.
Legend:
IKBKB (IKK-β) = molecular target: T1, IKBKB (IKK-β) (Homo sapiens, UniProt O14920); assay: IKKβ enzyme assay (Z'-LYTE, Invitrogen); assay type: biochemical
T1 construct: purchased Invitrogen (Paisley, UK)
T1 sequence (O14920 1-756): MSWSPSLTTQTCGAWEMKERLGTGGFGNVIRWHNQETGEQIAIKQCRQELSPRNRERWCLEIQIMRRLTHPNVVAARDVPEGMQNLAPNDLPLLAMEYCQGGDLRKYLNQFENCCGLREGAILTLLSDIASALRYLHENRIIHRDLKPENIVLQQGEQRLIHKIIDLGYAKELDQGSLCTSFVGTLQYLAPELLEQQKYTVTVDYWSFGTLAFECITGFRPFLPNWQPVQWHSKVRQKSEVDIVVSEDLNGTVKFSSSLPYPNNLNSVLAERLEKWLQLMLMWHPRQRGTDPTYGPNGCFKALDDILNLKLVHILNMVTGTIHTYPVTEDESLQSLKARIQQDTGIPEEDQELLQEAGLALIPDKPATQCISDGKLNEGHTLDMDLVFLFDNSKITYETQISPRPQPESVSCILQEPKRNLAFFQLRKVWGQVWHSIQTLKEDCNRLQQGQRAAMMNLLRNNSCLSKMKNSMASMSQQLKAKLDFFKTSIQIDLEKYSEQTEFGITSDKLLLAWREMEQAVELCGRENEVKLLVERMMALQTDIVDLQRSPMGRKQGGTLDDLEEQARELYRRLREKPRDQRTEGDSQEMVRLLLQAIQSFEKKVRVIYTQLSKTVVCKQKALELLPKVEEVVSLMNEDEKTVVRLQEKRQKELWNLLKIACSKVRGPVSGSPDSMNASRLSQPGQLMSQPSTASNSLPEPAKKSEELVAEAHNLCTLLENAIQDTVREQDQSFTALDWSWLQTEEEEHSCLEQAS
Method: The ability of compounds to inhibit IKK-β kinase activity was measured in an assay performed by Invitrogen (Paisley, UK). The Z′-LYTE™ biochemical assay employs a fluorescence-based, coupled-enzyme format and is based on the differential sensitivity of phosphorylated and non-phosphorylated peptides to proteolytic cleavage. The peptide substrate is labelled with two fluorophores—one at each end—that make up a FRET pair. In the primary reaction, the kinase transfers the gamma-phosphate of ATP to a single serine or threonine residue in a synthetic FRET-peptide. In the secondary reaction, a site-specific protease recognizes and cleaves non-phosphorylated FRET-peptides. Phosphorylation of FRET-peptides suppresses cleavage by the Development Reagent. Cleavage disrupts FRET between the donor (i.e. coumarin) and acceptor (i.e. fluorescein) fluorophores on the FRET-peptide, whereas uncleaved, phosphorylated FRET-peptides maintain FRET. A […] method, which calculates the ratio (the Emission Ratio) of donor emission to acceptor emission after excitation of the donor fluorophore at 400 nm, is used to quantitate reaction progress.
The final 10 μL Kinase Reaction consists of 0.9-8.0 ng IKBKB (IKK-β), 2 μM Ser/Thr 05 Peptide and ATP in 50 mM HEPES pH 7.5, 0.01% BRIJ-35, 10 mM MgCl2, 1 mM EGTA. The assay is performed at an ATP concentration at, or close to the Km. After the 60 minute Kinase Reaction incubation at room temperature, 5 μL of a 1:128 dilution of Development Reagent is added. The assay plate is incubated for a further 60 minutes at room temperature and read on a fluorescence plate reader.
Duplicate data points are generated from a ⅓ log dilution series of a stock solution of test compound in DMSO. Nine dilutions steps are made from a top concentration of 10 μM, and a ‘no compound’ blank is included. Data is collected and analysed using XLfit software from IDBS. The dose response curve is curve fitted to model number 205 (sigmoidal dose-response model). From the curve generated, the concentration giving 50% inhibition is determined and reported.

human whole blood = assay: LPS-stimulation of human whole blood, TNF-α release; assay type: cell-based
Method: Whole blood was taken by venous puncture using heparinised vacutainers (Becton Dickinson) and diluted in an equal volume of RPMI1640 tissue culture media (Sigma). 100 μl was plated in V-bottomed 96 well tissue culture treated plates. 2 hours after the addition of the inhibitor in 100 μl of RPMI1640 media, the blood was stimulated with LPS (E coli strain 005:B5, Sigma) at a final concentration of 100 ng/ml and incubated at 37° C. in 5% CO2 for 6 hours. TNF-α levels were measured from cell-free supernatants by sandwich ELISA (R&D Systems #QTA00B). Human heparinised blood (17-IU/ml) was diluted with an equal volume of RPMI-1640 and then sub-aliquoted into 96 well microtitre wells (100 µl/well). Inhibitors of IKKβ that had been serially diluted in RPMI-1640 were added to the wells (100 µl/well) to give a range of final concentrations (5-10000 nM). After incubation for 2 hours at 37° C., TNF[…] production was stimulated for 6 hours at 37° C. by the addition of 10 µl of LPS (E Coli 055:B5) to give a final concentration of 100 ng/ml. Plates were then centrifuged for 3 minutes at 800 g and TNF[…] present in the supernatant then measured, using a QuantiGlo Chemiluminescent ELISA (R&D Systems). The human whole blood assay measures the ability of the compounds to inhibit the LPS stimulated production of TNF alpha in human blood cells mediated by IKKβ in a physiologically relevant setting.

THP-1 cells = assay: LPS-stimulation of THP-1 cells, TNF-α release; assay type: cell-based; conditions: Homo sapiens, LPS 1 μg/ml, 6 hours, IC50 range, read-out: Inhibitor activity versus THP-1 TNFα release
Method: THP-1 cells were plated in 100 μl at a density of 4×10^4 cells/well in V-bottomed 96 well tissue culture treated plates and incubated at 37° C. in 5% CO2 for 16 hours. 2 hours after the addition of the inhibitor in 100 μl of tissue culture media, the cells were stimulated with LPS (E coli strain 005:B5, Sigma) at a final concentration of 1 μg/ml and incubated at 37° C. in 5% CO2 for 6 hours. TNF-α levels were measured from cell-free supernatants by sandwich ELISA (R&D Systems #QTA00B).

[1] = read-out: Enzyme IC50 (nM) vs IKKβ
[2] = LPS stimulated TNF alpha production, read-out: IC50 in Human whole blood
[3] = ATP at or close to Km, IC50 range, read-out: Inhibitor activity versus IKKβ
[4] = LPS 100 ng/ml, 6 hours, IC50 range, read-out: Inhibitor activity versus human whole blood TNFα release

IC50 (IKBKB (IKK-β); [1]) [nM] | IC50 (human whole blood; [2]) [nM] | IC50 (IKBKB (IKK-β); [3]) [nM] | IC50 (THP-1 cells) [nM] | IC50 (human whole blood; [4]) [nM] | SMILES
– | – | < 500 | < 500 | > 1000 | CC(C)(C)OC(=O)C(C)(C)NCc1cccc(-c2cc(C(N)=O)c(NC(N)=O)s2)c1 [Example 2, tert-Butyl N-{3-[4-carbamoyl-5-(carbamoylamino)-2-thienyl]benzyl}-2-methylalaninate]
– | – | > 1000 | < 500 | > 1000 | CC(C)(NCc1ccc2cc(-c3cc(C(N)=O)c(NC(N)=O)s3)ccc2c1)C(=O)OC1CCCC1 [Example 7, Cyclopentyl N-({6-[4-carbamoyl-5-(carbamoylamino)-2-thienyl]-2-naphthyl}methyl)-2-methylalaninate]
– | – | < 500 | – | – | CC(C)(NCc1cccc(-c2cc(C(N)=O)c(NC(N)=O)s2)c1)C(=O)O [Example 8, N-{3-[4-Carbamoyl-5-(carbamoylamino)-2-thienyl]benzyl}-2-methylalanine]
– | – | < 500 | – | – | CC(C)(NCCc1cccc(-c2cc(C(N)=O)c(NC(N)=O)s2)c1)C(=O)O [Example 10, N-(2-{3-[4-carbamoyl-5-(carbamoylamino)-2-thienyl]phenyl}ethyl)-2-methylalanine]
– | – | < 500 | – | – | CC(C)(NCc1ccc2cc(-c3cc(C(N)=O)c(NC(N)=O)s3)ccc2c1)C(=O)O [Example 11, N-({6-[4-carbamoyl-5-(carbamoylamino)-2-thienyl]-2-naphthyl}methyl)-2-methylalanine]

Second part, the compound before the results:

SMILES | IC50 (IKBKB (IKK-β); [1]) [nM] | IC50 (human whole blood; [2]) [nM] | IC50 (IKBKB (IKK-β); [3]) [nM] | IC50 (THP-1 cells) [nM] | IC50 (human whole blood; [4]) [nM]
NC(=O)Nc1sc(-c2ccccc2)cc1C(N)=O [Compound I, reference compound] | 5 | 489 | – | – | –
CC(C)(NCc1cccc(-c2cc(C(N)=O)c(NC(N)=O)s2)c1)C(=O)OC1CCCC1 [Example 1, Cyclopentyl N-{3-[4-carbamoyl-5-(carbamoylamino)-2-thienyl]benzyl}-2-methylalaninate] | 132 | 140 | < 500 | < 500 | < 500
CC(C)(NC(=O)c1cccc(-c2cc(C(N)=O)c(NC(N)=O)s2)c1)C(=O)OC1CCCC1 [Example 3, Cyclopentyl N-{3-[4-carbamoyl-5-(carbamoylamino)-2-thienyl]benzoyl}-2-methylalaninate] | – | – | < 500 | > 1000 | > 1000
CCC(CC)(NCc1cccc(-c2cc(C(N)=O)c(NC(N)=O)s2)c1)C(=O)OC1CCCC1 [Example 4, Cyclopentyl 2-({3-[4-carbamoyl-5-(carbamoylamino)-2-thienyl]benzyl}amino)-2-ethylbutanoate] | – | – | > 1000 | < 500 | > 1000
CC(C)(NCc1ccc(-c2cc(C(N)=O)c(NC(N)=O)s2)cc1)C(=O)OC1CCCC1 [Example 5, Cyclopentyl N-{4-[4-carbamoyl-5-(carbamoylamino)-2-thienyl]benzyl}-2-methylalaninate] | – | – | < 500 | > 1000 | 500 to 1000
CC(C)(NCCc1cccc(-c2cc(C(N)=O)c(NC(N)=O)s2)c1)C(=O)OC1CCCC1 [Example 6, Cyclopentyl N-(2-{3-[4-carbamoyl-5-(carbamoylamino)-2-thienyl]phenyl}ethyl)-2-methylalaninate] | – | – | 500 to 1000 | 500 to 1000 | < 500
CC(C)(NC(=O)c1cccc(-c2cc(C(N)=O)c(NC(N)=O)s2)c1)C(=O)O [Example 9, N-{3-[4-Carbamoyl-5-(carbamoylamino)-2-thienyl]benzoyl}-2-methylalanine] | – | – | < 500 | – | –

— US20110046210A1, “SUBSTITUTED THIOPENECARBOXAMIDES AS IKK-BETA SERINE-, THREONINE-PROTEIN KINASE INHIBITORS” (CHROMA THERAPEUTICS LTD., priority 2008, published 2011)
